Experimental data from patent publication US20220220206A1, “TREATING CHRONIC LIVER DISEASE” (Mayo Foundation for Medical Education and Research, priority 2019, published 2022).

What was measured:
[1] = test system: active ITGβ1 in Huh7 cells; test: LPC-induced ITGβ1 activation in Huh7 cells (immunoprecipitation/immunoblot, immunofluorescence); format: cell-based, human; settings: 10 μM SB203580
Protocol: Whole cell lysates (WCL) were obtained using immuno-precipitate (IP) buffer (50 mM Tris-HCl, pH 7.4; 1% Nonidet P-40; 150 mM NaCl) with protease inhibitor and phosphatase inhibitor followed by centrifugation at 15,000 g for 15 minutes at 4° C. Protein concentrations of the lysates were measured by the Bradford assay method (Sigma-Aldrich). In pull-down experiments, aliquots containing 1 mg of protein were incubated with either anti-ITGβ1 (MAB13), anti-ITGβ1 (9EG7) antibody or isotype IgG control antibody for 1 hour at 4° C., then incubated overnight with protein G sepharose beads (GE Healthcare) under rotary agitation. Pelleted proteins were washed with IP buffer for seven times, solubilized in SDS sample buffer, boiled for 10 minutes, and then subjected to SDS-PAGE and immunoblot analysis.
Huh7 cells were seeded on fibronectin-coated coverslips and fixed with 4% paraformaldehyde following LPC treatment. After permeabilization using 0.2% TritonX-100, the cells were blocked using blocking buffer (5% bovine serum albumin, 0.1% glycine in PBS) for one hour at room temperature, and then incubated with the primary antibody of interest overnight at 4° C. […] Pearson's correlation coefficient of co-localization was employed to quantify the degree of colocalization between fluorophores. Ten to 20 random fields in each group were selected for quantification and statistical analysis.

[2] = test system: VCAM-1 expression in TSEC; test: Palmitate-induced VCAM-1 expression in TSEC; format: cell-based, mouse; settings: 500 μM PA, 16 hours
Protocol: Transformed mouse liver sinusoidal endothelial cells (TSEC) were obtained. Primary human liver sinusoidal endothelial cells (LSEC) were purchased from ScienCell Research Laboratories (San Diego, Calif.). To yield primary mouse LSECs, cell suspensions obtained with liver collagenase perfusion were centrifuged at 50 g for 2 minutes to remove hepatocytes. The supernatant which includes non-parenchymal cells was subjected to LSEC isolation using CD146 MicroBeads (Miltenyi Biotec, Bergisch Gladbach, Germany) following the manufacture's instruction. […]
Cells were lysed using RIPA buffer (50 mM Tris-HCl, pH 7.4; 1% Nonidet P-40; 0.25% sodium deoxycholate; 150 mM NaCl; 1 mM EDTA with protease inhibitors) followed by centrifugation at 15,000 g for 15 minutes at 4° C. Protein concentrations of the lysates were measured by the Bradford assay method (Sigma-Aldrich). […] Proteins were detected using enhanced chemiluminescence reagents (GE Healthcare, Chicago, Ill.). β-actin and GAPDH protein levels were used as loading controls.
Total RNA was isolated with the RNeasy Mini Kit (Qiagen, Valencia, Calif.) and was reverse transcribed with moloney murine leukemia virus reverse transcriptase and oligo-dT random primers (both from Invitrogen, CA, USA). Quantification of gene expression was performed by real-time PCR using SYBR green fluorescence on a LightCycler 480 instrument (Roche Applied, IN, USA). […]

[3] = test system: FFC diet-fed C57BL/6J mice (diet-induced NASH); test: FFC diet-induced NASH mouse model, VCAM-1 blockade (antibody or AGI-1067); format: in vivo; settings: AGI-1067 25 mg/kg i.p. daily for 15 days, vs vehicle
From the text: C57BL/6J male mice were purchased from Jackson Laboratory (Bar Harbor, Me.). Mice were housed and bred in a temperature-controlled 12:12-hour light-dark cycle facility with free access to diet. The mice were fed either a chow diet (5053 PicoLab Rodent Diet 20, LabDiet, St Louis, Mo.) or a diet rich in fat, fructose, and cholesterol (FFC) at 8-weeks old for 24 weeks. FFC diet consists of 40% energy as fat (12% saturated fatty acid, 0.2% cholesterol) (AIN-76A Western Diet, TestDiet, St Louis, Mo.), with fructose (23.1 g/L) and glucose (18.9 g/L) in the drinking water. The FFC diet induces steatohepatitis with pronounced hepatocellular ballooning, lipoapoptosis, and progressive fibrosis with a high fidelity to the human NASH histology and metabolic profile. At 20 weeks on the diet, the mice were randomized to receive either anti-VCAM-1 neutralizing antibody (M/K-2.7), (Genetex, GTX14360) or IgG isotype antibody (BE0088, InVivoMAb). Mice were injected with 10 mg/kg body weight of either of the antibodies intraperitoneally, twice per week for 4 weeks. Another cohort of Chow or FFC diet-fed mice was randomized to receive either vehicle or VCAM-1 inhibitor succinobucol (AGI-1067). Mice were injected with either vehicle or 25 mg/kg body weight of AGI-1067 intraperitoneally, daily for 15 days. Total caloric intake at the 3rd week of VCAM-1 antibody treatment and the first week of AGI-1067 treatment was calculated based on the weight of food and drinking water consumption. At the third week of anti-VCAM-1 neutralizing antibody treatment, metabolic parameters, including oxygen consumption, carbon dioxide production, and locomotor activity, were measured using a Comprehensive Lab Animal Monitoring System (CLAMS, Columbus Instruments, OH). Anti-VCAM-1 antibody from Bio Xcell (West Lebanon, N.H.), (BE0027) was used for the CLAMS study. Blood glucose levels and plasma insulin levels were measured using Assure 4 (Arkray, Edina, Minn.) and Ultra-Sensitive Mouse Insulin enzyme-linked immunosorbent assay (ELISA) kit (Crystal Chem Inc., Downers Grove, Ill.), respectively. Homeostasis model assessment of insulin resistance (HOMA-IR) was calculated by using the following formula: HOMA-IR=26×fasting insulin level (ng/mL)×fasting glucose level (mg/dL)/405. Mice were sacrificed under general anesthesia induced by a ketamine/xylazine cocktail (83 mg/kg ketamine, 16 mg/kg xylazine, intraperitoneal injection). All interventions were made during the light cycle. Blood and liver samples were collected for further study.
Liver triglyceride levels were measured in mouse liver homogenates. Fifty milligrams of liver tissue was homogenized in a 5% NP-40 solution. EnzyChrom Triglyceride Kit (BioAssay System, CA) was used for the assay according to the manufacturer's instruction. Photometric absorbance was read at 570 nm using a Synergy H1 microplate reader (BioTek). Serum alanine aminotransferase (ALT) levels were measured by VetScan2 (Abaxis Veterinary Diagnostics, Union City, Calif.).
Liver histology was performed using tissue fixed in 10% formalin, dehydrated, and embedded in paraffin. Hematoxylin and eosin (H&E) staining and Sirius red staining were performed. Severity of NASH was assessed using nonalcoholic fatty liver disease (NAFLD) activity score (NAS), a semi-quantitative score that accounts for steatosis, ballooned hepatocytes, and lobular inflammation. Terminal deoxynucleotidyl transferase deoxyuridine triphosphate nick-end labeling (TUNEL) assay was performed using the ApopTag Peroxidase In Situ Apoptosis Detection Kit (Millipore Sigma, St. Louis, Mo.); diaminobenzidine (DAB) was used as a peroxidase substrate (Vector Laboratories, Burlingame, Calif.); 0.5% methyl green was used for the counterstain. […]

SMILES	LPC-induced activation of ITGβ1 (immunofluorescence microscopy) ([1]; 5 μM LPC 20 minutes)	LPC-induced increase in active ITGβ1 (9EG7 immunoprecipitation, immunoblot) ([1]; 20 μM LPC 15-30 min)	PA-induced VCAM-1 protein level (Western blot) [2]	PA-induced VCAM-1 mRNA expression ([2]; real-time qPCR)	MoMF-related hepatic inflammation by Galectin-3 staining of liver sections [3]	NAS score [3]	hepatic mRNA expression of Acta2 (α-SMA) [3]	hepatic mRNA expression of Ccr2 [3]	hepatic mRNA expression of Cd68 [3]	hepatic mRNA expression of Col1α1 [3]	hepatic mRNA expression of Tnfα [3]	hepatic steatosis [3]	liver injury as number of TUNEL positive hepatocyte [3]	liver triglyceride content [3]	plasma ALT levels [3]	stellate cell activation and liver fibrogenesis by Sirius red staining [3]	stellate cell activation and liver fibrogenesis by immunohistochemistry for α-SMA [3]
C[S+]([O-])c1ccc(-c2nc(-c3ccncc3)c(-c3ccc(F)cc3)[nH]2)cc1 (centres unmarked) [SB203580]	diminished	reduced	–	–	–	–	–	–	–	–	–	–	–	–	–	–	–
CC(C)(Sc1cc(C(C)(C)C)c(O)c(C(C)(C)C)c1)Sc1cc(C(C)(C)C)c(OC(=O)CCC(=O)O)c(C(C)(C)C)c1 [AGI-1067, succinobucol]	–	–	inhibits	inhibits	reduced	reduced	attenuated	reduced	reduced	attenuated	reduced	did not alter	reduced	did not alter	did not reach the statistical significance	attenuated	attenuated
